The values below are quoted from earlier work in patent publication US20130072576A1, “Cationic Nanogels For Biotechnological Applications” (Universidad Del Pais Vasco, priority 2010, published 2013).

Take `C=CN1CCCCCC1=O` [VCL, N-vinylcaprolactam]: the solubility in water was 8.5 % by weight.
